# Assay results from publication PMC8037910, “Effect of Chronic Administration of 5-(3-chlorophenyl)-4-Hexyl-2,4 -Dihydro-3H-1,2,4-Triazole-3-Thione (TP-315)—A New Anticonvulsant Drug Candidate—On Living Organisms” (International Journal of Molecular Sciences, 2021).
# Like-named read-outs stand apart in the source and are kept apart here.
# Assays:
# [1] = test system: mice; design: method as in PMID 23291122, PMID 25226229, PMID 25090118; unit not given here; details: chimney test, cited from earlier work
# [2] = molecular target: T1, CYP2B6 (Homo sapiens, UniProt P20813); test: Vivid CYP450 screening kit, CYP2B6; type: biochemical; details: 0.015 μg/mL, 20 min incubation, p > 0.05
# T1 construct: purchased Thermo Fisher Scientific
# T1 sequence (P20813 1-491): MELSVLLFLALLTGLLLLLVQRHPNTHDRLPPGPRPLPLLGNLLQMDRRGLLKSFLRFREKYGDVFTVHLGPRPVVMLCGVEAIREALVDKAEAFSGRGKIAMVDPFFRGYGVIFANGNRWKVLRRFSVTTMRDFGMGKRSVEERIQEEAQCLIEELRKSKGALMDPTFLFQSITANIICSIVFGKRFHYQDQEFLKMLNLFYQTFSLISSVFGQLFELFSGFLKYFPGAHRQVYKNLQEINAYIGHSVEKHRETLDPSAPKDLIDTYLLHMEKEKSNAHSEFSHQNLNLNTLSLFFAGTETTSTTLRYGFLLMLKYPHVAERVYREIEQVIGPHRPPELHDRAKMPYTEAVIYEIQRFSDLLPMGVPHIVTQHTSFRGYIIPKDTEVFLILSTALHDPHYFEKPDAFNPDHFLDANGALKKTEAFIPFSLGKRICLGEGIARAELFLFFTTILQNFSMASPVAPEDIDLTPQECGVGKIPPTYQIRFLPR
# Experimental: Possible inhibitory effect of TP-315 on the catalytic activity of human cytochrome CYP450 enzymes was tested using Vivid CYP450 screening kits (Thermo Fisher Scientific, Waltham, MA, USA) according to the manufacturer’s standard procedure (Vivid BOMCC substrate CYP2B6 blue, Vivid DBOMF substrate CYP3A4 green, Vivid DBOMF substrate CYP3A5 green, Vivid EOMCC substrate CYP2C19 blue, Vivid MOBFC substrate CYP2D6 cyan). The experiment was carried out in the endpoint test mode (reading after 20 min of incubation). The test compound was dissolved in DMSO (starting concentrations, 2.5× concentrated); to avoid the influence of the solvent on the enzyme activity, the results were compared with the solvent control. The influence of TP-315 on the activity of selected enzymes was tested at concentrations of 0.015, 0.1, 0.5, 1, 2.5, 5, and 10 μg/mL. The positive control compounds (inhibitors) were miconazole (for CYP2C19 and CYP2B6), quinidine (for CYP2D6), and ketoconazole (for CYP3A4 and CYP3A5). Inhibitor concentrations were selected according to the manufacturer’s recommendations to achieve ≥90% inhibition. All inhibitors were obtained from Sigma-Aldrich (St. Louis, MO, USA). The BioTek Synergy H1 reader (BioTek Instruments, Inc., USA) was used to read the fluorescence according to the manufacturer’s guidelines. The tests were performed in duplicate.
# [3] = test system: 6 Hz psychomotor seizure model; design: method as in PMID 32253957; details: mice, cited from earlier work
structure (smiles),measurement,setting,value
"CCCCCCn1c(-c2cccc(Cl)c2)n[nH]c1=S [TP-315, 5-(3-Chlorophenyl)-4-hexyl-2,4-dihydro-3H-1,2,4-triazole-3-thione]",Neurotoxicity in Chimney or Rotarod (†) Tests in Mice,[1]; pretreatment time 15 min,462.9 ± 20.0
same,Neurotoxicity in Chimney or Rotarod (†) Tests in Mice,[1]; pretreatment time 30 min,462.9 ± 20.0
same,Neurotoxicity in Chimney or Rotarod (†) Tests in Mice,[1]; pretreatment time 60 min,456.9 ± 19.7
same,Neurotoxicity in Chimney or Rotarod (†) Tests in Mice,[1]; pretreatment time 120 min,448.1 ± 21.7
same,Inhibition of CYP2B6 activity compared to the control,[2],did not statistically significantly inhibit
same,Anticonvulsant Activity in 6 Hz Test ED50 ± SEM,[3]; pretreatment time 15 min,61.3 ± 10.1 mg/kg
same,Anticonvulsant Activity in 6 Hz Test ED50 ± SEM,[3]; pretreatment time 30 min,59.7 ± 6.8 mg/kg
same,Anticonvulsant Activity in 6 Hz Test ED50 ± SEM,[3]; pretreatment time 60 min,68.1 ± 11.0 mg/kg
same,Anticonvulsant Activity in 6 Hz Test ED50 ± SEM,[3]; pretreatment time 120 min,136.2 ± 18.3 mg/kg
